Counter-ions that a name gives are not always drawn.
Experiments:
[1] = biological target: T1, human somatostatin receptor SSTR2 (Homo sapiens, UniProt P30874); experiment: Binding inhibition of 125I-somatostatin, CHO cell membrane fraction; conditions: 125I-somatostatin binding, 25° C. for 60 minutes, read-out: Activities for human somatostatin receptor (IC50 value) SSTR2
T1 construct: expressed in transfected cells; host or cells: CHO (dhfr-) cells, strain SSTR2-HS5-9
Protocol: (§1) A human somatostatin receptor expression CHO cell strain, SSTR1-8-3, SSTR2-HS5-9, SSTR3-15-19, SSTR4-1-2 or SSTR5-32-4 (10^9), was suspended in a phosphate buffered saline containing 5mM of EDTA (PBS-EDTA). The suspension was centrifuged. To the cell pellet was added 10 ml of a homogenation buffer solution for cells (10 mM NaHCO3, 5 mM EDTA, pH=7.5). The mixture was homogenized by a Politron homogenizer and centrifuged at 400×g for 15 minutes. The supernatant obtained was farther centrifuged at 100,000×g for an hour to obtain a precipitate of the membrane fraction. The precipitate was suspended in 2 ml of a buffer solution for assay ([…], 0.1% of BSA (bovine serum albumin) and […], 1 μ/ml of pepstatin, 20 μg/ml of leupeptin, 10 μg/ml of phosphoramide, pH=7.5). The suspension was centrifuged at […] for an hour. The membrane fraction recovered as precipitate was suspended again in 20 ml of buffer solution for assay. The suspension was placed in tubes and stored at −80° C. The suspension was thawed when used, and used at every use.
(§2) The membrane fraction prepared in Example 1 was diluted with a buffer solution for assay to adjust the concentration to 3 μg/ml. The diluate was placed in tubes each in quantity of 173 μl. To this were simultaneously added 2 μl of a solution of a compound in DMSO and 25μl of a 200pM radioisotope-labeled somatostatin (^125I-somatostatin: Amersham) solution. For measurement of the maximum binding, a reaction mixture added with 2 μl of DMSO and 25μl of a 200pM ^125I-somatostatin solution was prepared. For measurement of non-specific binding, a reaction mixture added with 2 μl of a 100 μM somatostatin solution diluted in DMSO and 25 μl of a 200pM ^125I-somatostatin solution was prepared at the same time. The mixtures were allowed to react at 25° C. for 60 minutes. Then, the reaction mixture was filtered by aspiration using a GF/B glass fiber filter paper (Whatman) treated with polyethylenimine. After filtration, the radioactivity of 125I-somatostatin remaining on the filter paper was measured by a γ-counter.
(§3) The binding rate (%) of each compound was calculated by the formula: […]
(§4) (where PBM: Percent maximum Binding, B: radioactivity when a compound was added, Bo: maximum binding radioactivity, NSB: non-specific binding radioactivity). The binding rates were calculated by changing the concentrations of the compound to obtain the 50% inhibiting concentration of the compound (IC50 value) by the Hil l plots.
(§5) The activities (IC50 value, μM) of the compounds for each human somatostatin receptor obtained by the above method are shown in the following Table 5.

[2] = biological target: T2, human somatostatin receptor SSTR3 (Homo sapiens, UniProt P32745); experiment: as above; conditions: 125I-somatostatin binding, 25° C. for 60 minutes, read-out: Activities for human somatostatin receptor (IC50 value) SSTR3
T2 construct: expressed in transfected cells; host or cells: CHO (dhfr-) cells, strain SSTR3-15-19
T2 sequence (P32745 whole entry): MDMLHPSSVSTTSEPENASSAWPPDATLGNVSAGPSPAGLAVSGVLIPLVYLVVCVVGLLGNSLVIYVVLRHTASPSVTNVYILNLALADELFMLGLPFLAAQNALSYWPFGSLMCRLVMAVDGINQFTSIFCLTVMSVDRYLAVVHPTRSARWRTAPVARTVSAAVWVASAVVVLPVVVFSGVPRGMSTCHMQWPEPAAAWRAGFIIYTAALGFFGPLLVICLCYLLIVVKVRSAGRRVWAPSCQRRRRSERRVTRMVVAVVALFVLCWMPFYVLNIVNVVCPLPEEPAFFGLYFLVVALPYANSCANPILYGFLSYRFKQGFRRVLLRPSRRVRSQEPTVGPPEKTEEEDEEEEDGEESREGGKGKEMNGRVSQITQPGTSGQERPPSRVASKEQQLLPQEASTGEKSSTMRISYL
Protocol: as §1, §2, §3, §4, §5

[3] = biological target: T3, human somatostatin receptor SSTR4 (Homo sapiens, UniProt P31391); experiment: as above; conditions: 125I-somatostatin binding, 25° C. for 60 minutes, read-out: Activities for human somatostatin receptor (IC50 value) SSTR4
T3 construct: expressed in transfected cells; host or cells: CHO (dhfr-) cells, strain SSTR4-1-2
T3 sequence (P31391 whole entry): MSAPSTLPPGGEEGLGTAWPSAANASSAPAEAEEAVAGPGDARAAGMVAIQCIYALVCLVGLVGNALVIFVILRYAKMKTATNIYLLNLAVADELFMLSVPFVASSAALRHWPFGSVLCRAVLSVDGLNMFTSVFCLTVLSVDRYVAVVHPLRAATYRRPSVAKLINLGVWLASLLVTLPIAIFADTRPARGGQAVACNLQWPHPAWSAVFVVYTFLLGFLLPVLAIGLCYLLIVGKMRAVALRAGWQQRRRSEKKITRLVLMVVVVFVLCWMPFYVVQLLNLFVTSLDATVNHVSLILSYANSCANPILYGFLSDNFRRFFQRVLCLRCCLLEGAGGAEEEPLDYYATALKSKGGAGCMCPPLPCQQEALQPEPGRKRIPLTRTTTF
Protocol: as §1, §2, §3, §4, §5

[4] = biological target: T4, human somatostatin receptor SSTR5 (Homo sapiens, UniProt P35346); experiment: as above; conditions: 125I-somatostatin binding, 25° C. for 60 minutes, read-out: Activities for human somatostatin receptor (IC50 value) SSTR5
T4 construct: expressed in transfected cells; host or cells: CHO (dhfr-) cells, strain SSTR5-3-2-4 (also printed SSTR5-32-4)
T4 sequence (P35346 whole entry): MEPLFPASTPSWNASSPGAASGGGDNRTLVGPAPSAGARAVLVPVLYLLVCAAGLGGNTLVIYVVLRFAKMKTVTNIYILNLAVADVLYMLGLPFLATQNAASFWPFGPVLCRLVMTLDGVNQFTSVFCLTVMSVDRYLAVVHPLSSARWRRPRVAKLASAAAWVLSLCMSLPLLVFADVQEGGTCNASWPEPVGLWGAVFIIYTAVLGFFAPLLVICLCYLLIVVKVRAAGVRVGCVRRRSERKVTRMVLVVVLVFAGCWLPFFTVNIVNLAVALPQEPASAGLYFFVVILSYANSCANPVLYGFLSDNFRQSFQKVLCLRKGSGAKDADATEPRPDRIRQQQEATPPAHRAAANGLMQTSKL
Protocol: as §1, §2, §3, §4, §5

[5] = biological target: T1, human somatostatin receptor SSTR2; experiment: Inhibition of forskolin-stimulated accumulation of cAMP in receptor expression CHO cells; assay type: cell-based; conditions: forskolin 10 μM, 37° C. for 30 minutes, read-out: Inhibitory effect on forskolin-stimulated accumulation of cAMP (ED50 value) SSTR2
Protocol: (§6) For measurement of the accumulated intracellular adenosine 3′,5′-monophosphate (cAMP), the human somatostatin receptor expression cell strains, SSTR2-HS5-9, SSTR-3-15-19, SSTR4-1-2 and SSTR5-32-4, mentioned in Reference Examples 2-3, 3-3,4-3 and 5-3, respectively, were proliferated in 24-well plate until they were confluent. Said cells were washed twice with 1 ml of Medium A [Dulbecco's Modified Eagle Medium (DMEM), 20 mM 2-(4-(2-hydroxyethyl)-1-piperazinyl]ethanesulfonic acid (HEPES) (pH 7.5), 0.2% bovine serum albumin and 0.2 mM 3-isobutyl-1-methylxanthine (IBMX)]. The medium A was placed in wells each in quantity of 400 μl and incubated at 37° C. for an hour. A solution of the compounds of Example 5 and Example 102 (solution obtained by diluting with Medium A to the 10-fold concentration of the final concentration) and a forskolin solution (final concentration 10 μM) were placed in wells each in quantities of 50 μl and 50 μl, respectively, and incubated at 37° C. for 30 minutes. The cells were washed twice with 1 ml of Medium A. Medium A (500 μl) and 100 μl of a 20% aqueous perchloric acid solution were placed in each well and left standing for 20 minutes at 4° C. to lyse the cells. The lyzate was placed in an Eppendorf's tube and centrifuged (15.000 rpm, for 10 minutes). The supernatant was placed in another Eppendorf's tube in quantity of 500 μl and neutralized with 60 mM of a HEPES aqueous solution containing 1.5 M of potassium chloride. The content of cAMP contained in this extract was determined by the Amersham kit (cAMP EIA system).

[6] = biological target: T2, human somatostatin receptor SSTR3; experiment: as above; assay type: cell-based; conditions: forskolin 10 μM, 37° C. for 30 minutes, read-out: Inhibitory effect on forskolin-stimulated accumulation of cAMP (ED50 value) SSTR3
Protocol: as §6

[7] = biological target: T3, human somatostatin receptor SSTR4; experiment: as above; assay type: cell-based; conditions: forskolin 10 μM, 37° C. for 30 minutes, read-out: Inhibitory effect on forskolin-stimulated accumulation of cAMP (ED50 value) SSTR4
Protocol: as §6

[8] = biological target: T4, human somatostatin receptor SSTR5; experiment: as above; assay type: cell-based; conditions: forskolin 10 μM, 37° C. for 30 minutes, read-out: Inhibitory effect on forskolin-stimulated accumulation of cAMP (ED50 value) SSTR5
Protocol: as §6

T1 sequence (P30874 whole entry): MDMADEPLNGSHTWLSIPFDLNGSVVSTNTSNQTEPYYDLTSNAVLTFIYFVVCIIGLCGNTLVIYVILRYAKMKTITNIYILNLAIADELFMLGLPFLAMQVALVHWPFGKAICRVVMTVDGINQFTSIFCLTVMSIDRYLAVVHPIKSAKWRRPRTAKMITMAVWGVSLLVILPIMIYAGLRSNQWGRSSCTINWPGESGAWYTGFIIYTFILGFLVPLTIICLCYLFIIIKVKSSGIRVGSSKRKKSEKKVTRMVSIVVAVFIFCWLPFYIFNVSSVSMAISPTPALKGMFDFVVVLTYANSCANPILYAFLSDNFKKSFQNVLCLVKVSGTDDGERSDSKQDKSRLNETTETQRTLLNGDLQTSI

| IC50 [1] | IC50 [2] | IC50 [3] | IC50 [4] | EC50 [5] | EC50 [6] | EC50 [7] | EC50 [8] | Compound |
| --- | --- | --- | --- | --- | --- | --- | --- | --- |
| 100 nM | 3 nM | 300 nM | 0.7 nM | 300 nM | 2 nM | 200 nM | 0.7 nM | NCc1cccc(C2OC(CC(=O)NCc3ccccc3F)C(=O)N(Cc3ccc(-c4ccccc4)cc3)c3ccc(Cl)cc32)c1 (stereo not drawn) [Example 5, 3,5-Trans-N-(2-fluorobenzyl)-5-(3-aminomethylphenyl)-1-(4-biphenylmethyl)-7-chloro-2-oxo-1,2,3,5-tetrahydro-4,1-benzoxazepine-3-acetamide•monohydrochloride] |
| 60 nM | 80 nM | 300 nM | 0.1 nM | 200 nM | 0.3 nM | 100 nM | 0.3 nM | NCc1cccc(C2OC(CC(=O)NCc3ccccc3F)C(=O)N(Cc3ccc(O)cc3)c3ccc(Cl)cc32)c1 (stereo not drawn) [Example 102, 3,5-Trans-N-(2-fluorobenzyl)-5-(3-aminomethylphenyl)-7-chloro-1-(4-hydroxybenzyl)-2-oxo-1,2,3,5-tetrahydro-4,1-benzoxazepine-3-acetamide•monohydrochloride] |
